From paper PMC8395335, “Serotonergic–Muscarinic Interaction within the Prefrontal Cortex as a Novel Target to Reverse Schizophrenia-Related Cognitive Symptoms” (International Journal of Molecular Sciences, 2021)

How the values were obtained:
in vivo = assay: in vivo; parameters: species or system mice; settings: mouse
Description: The experiment was performed using the methods described by Bridges et al. and in our previous studies.
The pharmacokinetic analysis was performed in the blood and prefrontal cortex. […] Plasma and FC samples were stored at −80 °C until analysis.
The drug was administered at a dose of 0.1 mg/kg; brain and tissue samples were collected 15, 30, 60, and 120 min after administration.
On the day of analysis, frozen whole mouse brain tissues were weighed and homogenized in 1:2 (w/v) volumes of ice-cold acetonitrile containing 0.1% FA and the internal standard mix. Samples were homogenized using a Metal Bead Lysing Matrix, vortexed for 1 min, shaken for 20 min at 4 °C on Thermomixer C, and centrifuged at 14,000× g rpm for 20 min at 4 °C. Finally, 50 µL of supernatant were diluted with 0.1% FA in water (1:1, v/v) and analyzed using HPLC/MS/MS.
The sample extraction of plasma (20 μL) was performed after spiking with the internal standard mix using the protein precipitation method and three volumes of ice-cold acetonitrile containing 0.1% formic acid. The extract was vortexed, incubated on ice for 20 min and centrifuged at 14,000× g rpm for 20 min at 4 °C. The supernatant was diluted with 0.1% FA in water (1:1, v/v) and analyzed by means of HPLC/MS/MS using a QTRAP 4500 (AB Sciex) mass spectrometer in positive ion mode in Multiple Reaction Monitoring (MRM screening) coupled with UHPLC (NEXERA XR, Shimadzu). Chromatographic separation was achieved on a Synergi 4 µm Fusion-RP 80 A 50 × 2 mm (Phenomenex) column at a flow rate of 0.2 mL/min. The gradient program was as follows: 20% B (0.3 min), 20–100% B (1.7 min), 100% B (3 min), 100–20% B (0.1 min), 20% B (2 min), solvent A (95:5:0.1% formic acid in water:methanol) and solvent B (methanol containing 0.1% formic acid). The column temperature was set to 40 °C. Analyst software was used to control the instrument and collect data. The ion transfer tube temperature was 300 °C. The spray voltage, collision energy, declastering potential, and gas parameters were optimized to achieve the maximal response using the test compounds. Selected reaction monitoring was carried out using the transition parameters. Calibration curves were constructed, and a linear response was obtained in the range of 0.25–500 ng/mL (VU357017, VU0152100, and F15599) and 1.25–2500 ng/mL (VU0238429) by spiking known amounts of each compound in blank brain homogenates and plasma. For VU0357017 and F15599 IS VU0152100 was used as internal standard. Sample concentration of internal standard was 100 ng/mL for IS VU0238429 and 50 ng/mL for IS VU0152100.

PCP-induced deficits = test system: PCP-induced deficits; parameters: method as in PMID 20488670; settings: cited from earlier work
rats = test system: rats; parameters: method as in PMID 19154445; settings: cited from earlier work
[1] = parameters: method as in PMID 31174329, PMID 19438238; settings: earlier studies; cited from earlier work

Row | Compound | Time after administration up to which drug was detected in the frontal cortex (in vivo; Albino Swiss) | Tmax (in vivo; Albino Swiss, ip, 0.1 mg/kg) [min] | Tmax PFC (FC) (in vivo; Albino Swiss, ip, 0.1 mg/kg) [min] | half-life (in vivo; Albino Swiss, ip, 0.1 mg/kg) [min] | Cmax (in vivo; Albino Swiss, ip, 0.1 mg/kg, Cmax PFC (FC)) [µg/mL] | Cmax (in vivo; Albino Swiss, ip, 0.1 mg/kg, Cmax plasma) [µg/mL] | half-life (in vivo; ip, 0.1 mg/kg) [min] | Effect on PCP-induced deficits during the reversal phase of the learning task and in the hole-board test (PCP-induced deficits) | Doses inducing some adverse effects related to serotonergic syndrome (rats) | Brain penetration (whole brain) [1] [%]
1 | Cc1cnc(CNCC2(F)CCN(C(=O)c3ccc(F)c(Cl)c3)CC2)nc1 [F15599] | up to 2 h | 15 | 15 | 120 | 0.048 | 0.027 | 35 | ameliorated | greater than 0.16 mg/kg | –
2 | COc1ccc(CN2C(=O)C(=O)c3cc(OC(F)(F)F)ccc32)cc1 [VU0238429] | – | – | – | – | – | – | – | – | – | ≤ 8
